Experimental data as given in EP0552417B1, “Cyclic peptides and use thereof” (priority 1991, dated 1993).
Non-standard residues stand in square brackets, D forms with d. Residues, ends and D or L forms follow the SMILES beside them. *: point of attachment. NMeF = CN[C@@H](Cc1ccccc1)C(=O)O; X3 = O=C(Cc1c[nH]c2ccccc12)*; Orn = NCCC[C@H](N)C(=O)O; PhAc = O=C(Cc1ccccc1)*; Bn = c1ccc(C*)cc1; Sar = CNCC(=O)O

Legend:
[1] = target: T1, endothelin receptor A (ETA) (Sus scrofa, UniProt Q29010); experiment: Assay of affinity for receptor (1): binding activity on ETA receptor, 125I-labeled endothelin-1, porcine heart membrane fraction; set-up: key: relative specific activity; reference cyclic pentapeptide ETA binding = 1.0; conditions: specific activity, taking the binding activity of control cyclo[-D-Glu-Ala-D-aIle-Leu-D-Trp-] on receptor A as 1.0, 25°C, 1 hour
T1 construct: A membrane fraction prepared from the porcine heart; from tissue; host or cells: porcine heart membrane fraction
T1 sequence (Q29010 21-427): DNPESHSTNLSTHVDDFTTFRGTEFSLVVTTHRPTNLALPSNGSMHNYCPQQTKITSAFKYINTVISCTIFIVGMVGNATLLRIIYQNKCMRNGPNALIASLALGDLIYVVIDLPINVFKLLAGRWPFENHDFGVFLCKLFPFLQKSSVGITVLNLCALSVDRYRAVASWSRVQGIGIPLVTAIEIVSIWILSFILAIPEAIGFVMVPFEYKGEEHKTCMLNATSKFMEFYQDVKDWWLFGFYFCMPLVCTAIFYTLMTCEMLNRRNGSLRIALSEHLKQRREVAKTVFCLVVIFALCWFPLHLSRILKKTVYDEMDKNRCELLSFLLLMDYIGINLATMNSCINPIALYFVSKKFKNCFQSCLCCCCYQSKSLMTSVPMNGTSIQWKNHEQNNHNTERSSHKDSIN
Procedure: Assay of Affinity for Receptor (1) ... Binding Activity on ETA Receptor
A membrane fraction prepared from the porcine heart was diluted to 0.15 mg/ml by using a buffer solution for assay, and 100 µl of the resulting suspension of the membrane fraction was poured into each assay tube to use for assay. To this suspension of the membrane fraction was added 2 µl of 5 nM ^125I-labeled endothelin-1 solution. Further, 3 µl of a test peptide solution was added thereto, followed by incubation at a temperature of 25°C for 1 hour. Then, the resulting suspension was diluted with 900 µl of the buffer solution for assay cooled with ice, and thereafter separated into a supernatant and a precipitate by centrifugation at 12,000 X g for 10 minutes. Cell membranes and an endothelin receptor A (ETA) embedded therein were contained in the precipitate, and radioactive iodine-labeled endothelin combined with the receptor was also recovered in the precipitate. Accordingly, the amount of radioactive iodine-labeled endothelin combined with the endothelin receptor A (ETA) was determined by measuring the amount of radioactive iodine contained in the precipitate with a gamma-ray counter. The cyclic pentapeptide described in Japanese Patent Application No. 2-413328/1990, cyclo[-D-Glu-Ala-D-aIle-Leu-D-Trp-], was used as a control compound. The numerical value of ETA shown in Table 1 is the value of specific activity, taking the binding activity of this cyclic pentapeptide on the receptor A as 1.0. The binding activity (IC50) of this cyclic pentapeptide on the ETA receptor is 2x10^-6 M.

ETB = ETB radio receptor assay *2, 125I-endothelin-1, guinea pig kidney crude membrane fraction; format: binding, Guinea pigs; conditions: relative activity, 37 °C, 90 minutes
Procedure: ETB Radio Receptor Assay *2
In the endothelin radio receptor assay, guinea pigs' kidneys were used. Guinea pigs (Std Hartrey, male 250 g, Japan SLC Ltd.) were made to have a cerebral concussion and sacrificed by bleeding from carotid arteries to pick up the kidneys and removed fat therefrom to prepare the kidneys. The obtained kidneys were sliced and homogenized by politron homogenizer in 20 ml of 50 mM Tris-HCl buffer [pH 7.4; 20 mM NaHCO3, 0.1 mM PMSF (Phenylmethylsulfonyl Fluoride), 1 mM EDTA (Ethylenediaminetetraacetic acid)] per one kidney. The homogenized kidney was applied to a centrifugation at 1,000 x g for 15 minutes and the supernatant was further applied to a centrifugation for 20 minutes at 30,000 x g. The resulting precipitate was twice washed with 50 mM Tris-HCl buffer (pH 7.4) containing 0.1 mM PMSF, 1 mM EDTA. The resultant was stored at -80 °C as a crude receptor membrane fraction and was used as the suspension in the following buffer when necessary.
740 Bq of ^125I-endothelin-1 (81.4 TBq/mmol, Du Pont, USA) as a radio ligand, the crude membrane fraction (2.1 µg protein) and samples were added to the following buffer. The reaction was performed at 37 °C, for 90 minutes in 0.2 ml of the buffer [50 mM Tris-HCl buffer (pH 7.4) containing 0.1 mM PMSF, 1 mM EDTA, 0.2% bovine serum albumin].
The reaction was stopped by fast filtration on a glass filter (GF/B, Wattman, USA) by Cell Harvestor (290 PHD, Cambridge-Technology, Great Britain), and the filter was three times washed with 50 mM Tris-HCl buffer (pH 7.4). Radio activity remained on the filter was assayed by a gamma counter.

| Compound | Binding Activity on ET Receptor (R. act.) ETA [1] | Binding Activity on ET Receptor (R. act.) ETB*2 (ETB) |
| --- | --- | --- |
| CC(C)C[C@@H]1NC(=O)[C@@H](CC(C)C)NC(=O)[C@@H](C)NC(=O)[C@H](CC(=O)O)NC(=O)[C@@H](CC(=O)O)NC(=O)[C@@H](Cc2c[nH]c3ccccc23)NC1=O [Example 29, Cyclo[-D-Asp-Asp-D-Ala-D-Leu-Leu-D-Trp-]] (cyclo(D[dA][dL]L[dW][dD])) | 2.6 | 2.4 |
| CC(C)C[C@@H]1NC(=O)[C@@H](CC(C)C)NC(=O)[C@@H]2CCCN2C(=O)[C@H](CC(=O)O)NC(=O)[C@@H](CC(=O)O)NC(=O)[C@@H](Cc2c[nH]c3ccccc23)NC1=O [Example 30, Cyclo[-D-Asp-Asp-Pro-D-Leu-Leu-D-Trp-]] (cyclo(DP[dL]L[dW][dD])) | 4.4 | 9.1 |
| CC(C)C[C@@H]1NC(=O)[C@@H](CC(C)C)NC(=O)[C@H](CC(=O)O)NC(=O)[C@H](C)NC(=O)[C@@H](CCC(=O)O)NC(=O)[C@@H](Cc2c[nH]c3ccccc23)NC1=O [Example 41, Cyclo[-D-Glu-Ala-Asp-D-Leu-Leu-D-Trp-]] (cyclo(AD[dL]L[dW][dE])) | 2.1 | 26 |
| CC(C)C[C@@H]1NC(=O)[C@@H](CC(C)C)NC(=O)[C@H](CC(=O)O)NC(=O)[C@H](COCc2ccccc2)NC(=O)[C@@H](CC(=O)O)NC(=O)[C@@H](Cc2c[nH]c3ccccc23)NC1=O [Example 20, Cyclo[-D-Asp-Ser(Bzl)-Asp-D-Leu-Leu-D-Trp-]] (cyclo(D[dL]L[dW][dD]S(Bn))) | 14 | 13 |
| CC(C)C[C@@H]1NC(=O)[C@@H](CC(C)C)NC(=O)[C@H](CC(=O)O)NC(=O)CN(C)C(=O)[C@@H](CC(=O)O)NC(=O)[C@@H](Cc2c[nH]c3ccccc23)NC1=O [Example 46, Cyclo[-D-Asp-Sar-Asp-D-Leu-Leu-D-Trp-]] (cyclo(D[dL]L[dW][dD][Sar])) | 8.1 | 75 |
| CC(C)C[C@@H]1NC(=O)[C@@H](CC(C)C)NC(=O)[C@H](CC(=O)O)NC(=O)[C@H](CCCNC(=O)Cc2c[nH]c3ccccc23)NC(=O)[C@@H](CC(=O)O)NC(=O)[C@@H](Cc2c[nH]c3ccccc23)NC1=O [Example 82, cyclo[-D-Asp-Orn(COCH2-Ind)-Asp-D-Leu-Leu-D-Trp-]] (cyclo(D[dL]L[dW][dD][Orn](X3))) | 240 | 500 |
| CC(C)C[C@@H]1NC(=O)[C@@H](CC(C)C)NC(=O)[C@H](CC(=O)O)NC(=O)[C@H](CC(C)C)NC(=O)[C@@H](CC(=O)O)NC(=O)[C@@H](Cc2c[nH]c3ccccc23)NC1=O [Example 18, Cyclo[-D-Asp-Leu-Asp-D-Leu-Leu-D-Trp-]] (cyclo(D[dL]L[dW][dD]L)) | 13 | 2.2 |
| CC(C)C[C@@H]1NC(=O)[C@@H](CC(C)C)NC(=O)[C@@H](CC(=O)O)NC(=O)[C@H](C)NC(=O)[C@@H](CC(=O)O)NC(=O)[C@@H](Cc2c[nH]c3ccccc23)NC1=O [Example 2, cyclo[-D-Asp-Ala-D-Asp-D-Leu-Leu-D-Trp-]] (cyclo(A[dD][dL]L[dW][dD])) | 3.7 | 3.1 |
| CC(C)C[C@@H]1NC(=O)[C@@H](CC(C)C)NC(=O)[C@H](CCC(=O)O)NC(=O)[C@H](C)NC(=O)[C@@H](CC(=O)O)NC(=O)[C@@H](Cc2c[nH]c3ccccc23)NC1=O [Example 3, cyclo[-D-Asp-Ala-Glu-D-Leu-Leu-D-Trp-]] (cyclo(AE[dL]L[dW][dD])) | 7.9 | 23 |
| CC(C)C[C@@H]1NC(=O)[C@@H](CC(C)C)NC(=O)CNC(=O)[C@H](C)NC(=O)[C@@H](CCC(=O)O)NC(=O)[C@@H](Cc2c[nH]c3ccccc23)NC1=O [Example 40, Cyclo[-D-Glu-Ala-Gly-D-Leu-Leu-D-Trp-]] (cyclo(AG[dL]L[dW][dE])) | 1.4 | – |
| CC(C)C[C@@H]1NC(=O)[C@@H](CC(C)C)NC(=O)[C@H](CC(=O)O)NC(=O)[C@H](Cc2ccccc2)N(C)C(=O)[C@@H](CC(=O)O)NC(=O)[C@@H](Cc2c[nH]c3ccccc23)NC1=O [Example 48, Cyclo[-D-Asp-N-MePhe-Asp-D-Leu-Leu-D-Trp-]] (cyclo(D[dL]L[dW][dD][NMeF])) | 2.7 | 13 |
| CC(C)C[C@@H]1NC(=O)[C@@H](CC(C)C)NC(=O)[C@H](C)NC(=O)[C@@H](CC(=O)O)NC(=O)[C@@H](CC(=O)O)NC(=O)[C@@H](Cc2c[nH]c3ccccc23)NC1=O [Example 27, Cyclo[-D-Asp-D-Asp-Ala-D-Leu-Leu-D-Trp-]] (cyclo(A[dL]L[dW][dD][dD])) | 5.7 | 4.8 |
| CC(C)C[C@@H]1NC(=O)[C@@H](CC(C)C)NC(=O)[C@H](C)NC(=O)[C@H](CCC(=O)O)NC(=O)[C@@H](CC(=O)O)NC(=O)[C@@H](Cc2c[nH]c3ccccc23)NC1=O [Example 7, cyclo[-D-Asp-Glu-Ala-D-Leu-Leu-D-Trp-]] (cyclo(A[dL]L[dW][dD]E)) | 6.5 | 7.1 |
| CC(C)C[C@@H]1NC(=O)[C@@H](CC(C)C)NC(=O)[C@H](CC(=O)O)NC(=O)[C@H](CCCNC(=O)Cc2ccccc2)NC(=O)[C@@H](CC(=O)O)NC(=O)[C@@H](Cc2c[nH]c3ccccc23)NC1=O [Example 80, cyclo[-D-Asp-Orn(COCH2Ph)-Asp-D-Leu-Leu-D-Trp-]] (cyclo(D[dL]L[dW][dD][Orn](PhAc))) | 260 | 380 |
| CC(C)C[C@@H]1NC(=O)[C@@H](CC(C)C)NC(=O)[C@H](C)NC(=O)CNC(=O)[C@@H](CC(=O)O)NC(=O)[C@@H](Cc2c[nH]c3ccccc23)NC1=O [Example 5, cyclo[-D-Asp-Gly-Ala-D-Leu-Leu-D-Trp-]] (cyclo(A[dL]L[dW][dD]G)) | 1.3 | – |
| CC(C)C[C@@H]1NC(=O)[C@@H](CC(C)C)NC(=O)[C@H](CC(=O)O)NC(=O)[C@H]2CCCN2C(=O)[C@@H](CC(=O)O)NC(=O)[C@@H](Cc2c[nH]c3ccccc23)NC1=O [Example 24, Cyclo[-D-Asp-D-Pro-Asp-D-Leu-Leu-D-Trp-]] (cyclo(D[dL]L[dW][dD][dP])) | 1.7 | – |
| CC(C)C[C@H]1NC(=O)[C@H](CC(=O)O)NC(=O)[C@H](C)NC(=O)[C@@H](CC(=O)O)NC(=O)[C@@H](Cc2c[nH]c3ccccc23)NC(=O)[C@H](Cc2ccccc2)NC1=O [Example 57, Cyclo[-D-Asp-Ala-Asp-D-Leu-Phe-D-Trp-]] (cyclo(AD[dL]F[dW][dD])) | – | 2.0 |
